From PMC9780888, “4-Isobutylmethcathinone—A Novel Synthetic Cathinone with High In Vitro Cytotoxicity and Strong Receptor Binding Preference of Enantiomers” (Pharmaceuticals, 2022)
Structures can show the parent of a compound that is named as a salt.

System: 5637
Test: WST-1 viability assay, 5637 cells
Assay type: cell-based, human
Details: 5637, 72 h incubation, WST-1, four replicates
Method: Based on the novelty of the IMBcat compound, we aimed to evaluate its in vitro cytotoxicity in selected model cell lines as well as to determine the toxicity of the IBMcat enantiomers, since both the chemical structure and chirality of compounds could play a role in their bioactivity (Table 2). The cytotoxic profile of the IBMcat was determined by a WST-1 viability assay after 72-h treatment. For this purpose, cell lines derived from distinct tissues, often affected by NPSs, were chosen, i.e., cells of kidney, hepatic, neural, urinary, and intestinal origin as well as keratinocytes and primary fibroblasts (HEK 293T, Hep G2, HMC-3, SH-SY5Y, 5637, CaCo-2, HaCaT, MRC-5, and BJ, respectively). The cytotoxicity of IBMcat and its enantiomers was concentration- and cell-line dependent, the IC50 values, which were in the micromolar range, are given in Table 2. […] This was followed by embryonic kidney cells HEK 293T (immortalized), in which the toxicity ranged between a concentration of 123 and 192 µM.
In this study, the following cell lines were used: HEK 293T, Hep G2, HMC-3, SH-SY5Y, 5637, CaCo-2, HaCaT, MRC-5, BJ, and L929. […] The selected cell lines were chosen so that not only primary noncancerous cells are evaluated but also cells derived from tissues, which are the most often affected by novel synthetic drugs, i.e., kidney, liver, urinary bladder, and nervous tissue. […]
The cytotoxicity of IBMCat was evaluated in vitro by using a WST-1 viability assay (Sigma-Aldrich, Saint Louis, MO, USA) based on the transformation of a tetrazolium salt into colored formazan in metabolically active cells. […] After 72 h of additional incubation of the cells, their viability was determined by WST-1. […] The cells were incubated for 2 h, after which absorbance of the raised formazan was measured spectrophotometrically at 450 nm (reference wavelength of 630 nm) using a UV-Vis spectrometer (Bio-Rad Laboratories, Hercules, CA, USA). […] The half-maximal inhibitory concentrations (IC50) were calculated from the measured dose–response curves by AAT Bioquest.

Row | Compound | IC50 (Homo sapiens) [µM] | IC50 [µM]
1 | CNC(C)C(=O)c1ccc(CC(C)C)cc1.Cl (stereo not drawn) [IBMcat, 4-isobutylmethcathinone hydrochloride] | 18 ± 1 | 
2 | CN[C@H](C)C(=O)c1ccc(CC(C)C)cc1 [R-IBMCat] |  | 20 ± 1
3 | CN[C@@H](C)C(=O)c1ccc(CC(C)C)cc1 [S-IBMCat, (S)-4-isobutylmethcathinone hydrochloride] | 21 ± 4 | 
